Measurements as given in patent US10689400B2, “Macrocycle kinase inhibitors” (Turning Point Therapeutics, Inc., priority 2016, dated 2020).
pIC50: −log10 of the molar value.

What was measured:
[1] = tested on: SET-2 cells (harboring endogenous JAK2 V618F point mutation); test: SET-2 cell proliferation assay (CellTiter-Glo, 72 hours); format: cell-based; conditions: Homo sapiens, SET-2 essential thrombocythemia cell line, 72 hours incubation, read-out: Cell Proliferation JAK2 SET2 Cell IC50
Experimental: (§1) Alternatively: Colorectal cell line KM12 (harboring endogenous TPM3-TRKA fusion gene) cells were cultured in DMEM medium, supplemented with 10% fetal bovine serum and 100 U/mL of penicillin/streptomycin. Essential thrombocythemia cell line SET-2 cells (harboring endogenous JAK2 V618F point mutation) were cultured in RPMI medium, supplemented with 10% fetal bovine serum and 100 U/mL of penicillin/streptomycin. 5000 cells were seeded in 384 well white plate for 24 hours before compounds treatment. Cell proliferation was measured using CellTiter-Glo luciferase-based ATP detection assay (Promega) following the manufactures's protocol after 72 hours incubation. IC50 determinations were performed using GraphPad Prism software (GraphPad, Inc., San Diego, Calif.).

[2] = molecular target: T1, BTK kinase (Homo sapiens, UniProt Q06187); test: BTK biochemical kinase assay (radiometric; Eurofins KinaseProfiler / Reaction Biology); conditions: ATP 10 μM
T1 construct: purchased Eurofins (KinaseProfiler) / Reaction Biology Corporation
Experimental: The Compounds were tested against BTK kinase using the Eurofins standard KinaseProfiler™ assays and following the relevant standard operating procedures. Protein kinases were assayed in a radiometric format. Full details of the assay for each kinase are available on the Eurofins website, or in the accompanying protocol document. All compounds were prepared to a working stock of 50× final assay concentration in 100% DMSO. Where appropriate, more concentrated stocks were diluted manually to 50× using 100% DMSO. Compounds supplied as powders were reconstituted to a 10 mM stock in 100% DMSO before further dilution to 50×. The required volume of the 50× stock of test compound was added to the assay well, before a reaction mix containing the enzyme and substrate was added. The reaction was initiated by the addition of ATP at the selected 10 μM concentration. There was no pre-incubation of the compound with the enzyme/substrate mix prior to ATP addition. For IC50 determinations, data are analysed using XLFit version 5.3 (ID Business Solutions). Sigmoidal dose-response (variable slope) curves are fit based on the mean result for each test concentration using non-linear regression analysis. Where the top and/or bottom of the curve fall >10% out with 100 and 0, respectively, either or both of these limits may be constrained at 100 and 0, provided that the QC criterion on R^2 is met.
The BTK biochemical kinase assay was also performed at Reaction Biology Corporation (www.reactionbiology.com, Malvern, Pa.) following the procedures described in the reference (Anastassiadis T, et al Nat Biotechnol. 2011, 29, 1039). Specific kinase/substrate pairs along with required cofactors were prepared in reaction buffer; 20 mM Hepes pH 7.5, 10 mM MgCl2, 1 mM EGTA, 0.02% Brij35, 0.02 mg/ml BSA, 0.1 mM Na3VO4, 2 mM DTT, 1% DMSO (for specific details of individual kinase reaction components see Supplementary Table 2). Compounds were delivered into the reaction, followed ˜20 minutes later by addition of a mixture of ATP (Sigma, St. Louis Mo.) and ^33P ATP (Perkin Elmer, Waltham Mass.) to a final concentration of 10 μM. Reactions were carried out at room temperature for 120 min, followed by spotting of the reactions onto P81 ion exchange filter paper (Whatman Inc., Piscataway, N.J.). Unbound phosphate was removed by extensive washing of filters in 0.75% phosphoric acid. […] IC50 values and curve fits were obtained using Prism (GraphPad Software).

[3] = tested on: KM12 cells (harboring endogenous TPM3-TRKA fusion gene); test: KM12 cell proliferation assay (CellTiter-Glo, 72 hours); format: cell-based; conditions: Homo sapiens, KM12 colorectal cell line, 72 hours incubation
Experimental: as §1, with “Colorectal” for “Alternatively: Colorectal”, “lines KM 12” for “line KM12”, “DMEM” for “DMEM medium, supplemented with 10% fetal bovine serum and 100 U/mL of penicillin/streptomycin. Essential thrombocythemia cell line SET-2 cells (harboring endogenous JAK2 V618F point mutation) were cultured in RPMI”
as §1

T1 sequence (Q06187 whole entry): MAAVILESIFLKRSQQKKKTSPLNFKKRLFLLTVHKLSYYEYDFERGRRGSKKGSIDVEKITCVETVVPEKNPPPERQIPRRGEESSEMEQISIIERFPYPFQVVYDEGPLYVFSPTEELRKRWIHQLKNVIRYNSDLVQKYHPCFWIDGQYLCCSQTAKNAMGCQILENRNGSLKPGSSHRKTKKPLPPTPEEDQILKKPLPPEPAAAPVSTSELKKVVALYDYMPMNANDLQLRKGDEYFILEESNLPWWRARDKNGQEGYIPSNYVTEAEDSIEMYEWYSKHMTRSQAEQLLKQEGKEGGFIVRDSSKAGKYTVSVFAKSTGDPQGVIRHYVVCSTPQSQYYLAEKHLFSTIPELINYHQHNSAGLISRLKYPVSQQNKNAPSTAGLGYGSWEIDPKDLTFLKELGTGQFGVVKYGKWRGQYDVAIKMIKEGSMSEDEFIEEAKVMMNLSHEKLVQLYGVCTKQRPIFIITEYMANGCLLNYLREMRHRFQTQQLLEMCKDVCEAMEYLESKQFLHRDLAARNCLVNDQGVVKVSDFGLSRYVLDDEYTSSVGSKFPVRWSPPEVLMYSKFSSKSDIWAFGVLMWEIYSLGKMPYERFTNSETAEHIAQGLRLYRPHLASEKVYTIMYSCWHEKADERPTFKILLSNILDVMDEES

Structure (SMILES)	pIC50 [1]	pIC50 [2]	pIC50 [3]
C[C@H]1CNC(=O)c2cnn3ccc(nc23)N[C@H](C)c2cc(F)cc(F)c2O1 [Compound 1, (7S,13R)-9,11-difluoro-7,13-dimethyl-6,7,13,14-tetrahydro-1,15-ethenopyrazolo[4,3-f][1,4,8,10]benzoxatriazacyclotridecin-4(5H)-one]	6.92	8.61	9.70
C[C@H]1CNC(=O)c2cnn3ccc(nc23)N[C@H](C)c2c(ccc(F)c2Cl)O1 [Compound 2, (7S,13R)-12-chloro-11-fluoro-7,13-dimethyl-6,7,13,14-tetrahydro-1,15-ethenopyrazolo[4,3-f][1,4,8,10]benzoxatriazacyclotridecin-4(5H)-one]	5.52	8.60	8.29
C[C@H]1Nc2ccn3ncc(c3n2)C(=O)NC[C@@H](CO)Oc2c(F)cc(F)cc21 [Compound 3, (7S,13R)-9,11-difluoro-7-(hydroxymethyl)-13-methyl-6,7,13,14-tetrahydro-1,15-ethenopyrazolo[4,3-f][1,4,8,10]benzoxatriazacyclotridecin-4(5H)-one]	7.81		7.67
C[C@H]1Nc2ccn3ncc(c3n2)C(=O)NC[C@@H](CO)Oc2ccc(F)c(Cl)c21 [Compound 4, (7S,13R)-12-chloro-11-fluoro-7-(hydroxymethyl)-13-methyl-6,7,13,14-tetrahydro-1,15-ethenopyrazolo[4,3-f][1,4,8,10]benzoxatriazacyclotridecin-4(5H)-one]	5.52		7.34
C[C@H]1Nc2ccn3ncc(c3n2)C(=O)NCCOc2c(Br)cc(F)cc21 [Compound 5, (13R)-9-bromo-11-fluoro-13-methyl-6,7,13,14-tetrahydro-1,15-ethenopyrazolo[4,3-f][1,4,8,10]benzoxatriazacyclotridecin-4(5H)-one]	6.70	7.22	8.30
C[C@H]1Nc2ccn3ncc(c3n2)C(=O)NCCOc2c(Cl)cc(F)cc21 [Compound 6, (13R)-9-chloro-11-fluoro-13-methyl-6,7,13,14-tetrahydro-1,15-ethenopyrazolo[4,3-f][1,4,8,10]benzoxatriazacyclotridecin-4(5H)-one]	7.11	7.19	8.38
C[C@H]1CNC(=O)c2cnn3ccc(nc23)N[C@H](C)c2cc(F)cc(Br)c2O1 [Compound 7, (7S,13R)-9-bromo-11-fluoro-7,13-dimethyl-6,7,13,14-tetrahydro-1,15-ethenopyrazolo[4,3-f][1,4,8,10]benzoxatriazacyclotridecin-4(5H)-one]	8.17		9.70
C[C@H]1CNC(=O)c2cnn3ccc(nc23)N[C@H](C)c2cc(F)cc(Cl)c2O1 [Compound 8, (7S,13R)-9-chloro-11-fluoro-7,13-dimethyl-6,7,13,14-tetrahydro-1,15-ethenopyrazolo[4,3-f][1,4,8,10]benzoxatriazacyclotridecin-4(5H)-one]	7.08	8.40	9.70
CC(C)N1Cc2cc(F)cc(F)c2OCCNC(=O)c2cnn3ccc1nc23 [Compound 9, 9,11-difluoro-14-(propan-2-yl)-6,7,13,14-tetrahydro-1,15-ethenopyrazolo[4,3-f][1,4,8,10]benzoxatriazacyclotridecin-4(5H)-one]	6.88	7.65	8.28
CC(C)N1Cc2cc(F)cc(Cl)c2OCCNC(=O)c2cnn3ccc1nc23 [Compound 10, 9-chloro-11-fluoro-14-(propan-2-yl)-6,7,13,14-tetrahydro-1,15-ethenopyrazolo[4,3-f][1,4,8,10]benzoxatriazacyclotridecin-4(5H)-one]	5.83	6.75	10.00
C[C@H]1CNC(=O)c2cnn3ccc(nc23)N[C@H](C)c2c(ccc(F)c2F)O1 [Compound 11, (7S,13R)-11,12-difluoro-7,13-dimethyl-6,7,13,14-tetrahydro-1,15-ethenopyrazolo[4,3-f][1,4,8,10]benzoxatriazacyclotridecin-4(5H)-one]	8.41	7.85	9.70
CC(C)N1Cc2cc(F)cc(F)c2OCCCNC(=O)c2cnn3ccc1nc23 [Compound 12, 10,12-difluoro-15-(propan-2-yl)-5,6,7,8,14,15-hexahydro-4H-1,16-ethenopyrazolo[4,3-g][1,5,9,11]benzoxatriazacyclotetradecin-4-one]	5.30	8.01	9.70
CC(C)N1Cc2c(ccc(F)c2Cl)OCCNC(=O)c2cnn3ccc1nc23 [Compound 13, 12-chloro-11-fluoro-14-(propan-2-yl)-6,7,13,14-tetrahydro-1,15-ethenopyrazolo[4,3-f][1,4,8,10]benzoxatriazacyclotridecin-4(5H)-one]	5.00	8.26	6.52
CC(C)N1Cc2c(ccc(F)c2Cl)O[C@@H](C)CNC(=O)c2cnn3ccc1nc23 [Compound 14, (7S)-12-chloro-11-fluoro-7-methyl-14-(propan-2-yl)-6,7,13,14-tetrahydro-1,15-ethenopyrazolo[4,3-f][1,4,8,10]benzoxatriazacyclotridecin-4(5H)-one]	5.82	9.27	9.70
CC(C)Oc1cc(F)cc2c1OCCNC(=O)c1cnn3ccc(nc13)N[C@@H]2C [Compound 15, (13R)-11-fluoro-13-methyl-9-[(propan-2-yl)oxy]-6,7,13,14-tetrahydro-1,15-ethenopyrazolo[4,3-f][1,4,8,10]benzoxatriazacyclotridecin-4(5H)-one]	6.30	6.81	8.70
COc1cc(F)cc2c1OCCNC(=O)c1cnn3ccc(nc13)N[C@@H]2C [Compound 16, (13R)-11-fluoro-9-methoxy-13-methyl-6,7,13,14-tetrahydro-1,15-ethenopyrazolo[4,3-f][1,4,8,10]benzoxatriazacyclotridecin-4(5H)-one]	6.52	6.35	7.86
C[C@H]1Nc2ccn3ncc(c3n2)C(=O)NCCOc2c(O)cc(F)cc21 [Compound 17, (13R)-11-fluoro-9-hydroxy-13-methyl-6,7,13,14-tetrahydro-1,15-ethenopyrazolo[4,3-f][1,4,8,10]benzoxatriazacyclotridecin-4(5H)-one]	6.22	7.32	7.81
C[C@H]1CNC(=O)c2cnn3ccc(nc23)N[C@H](C)c2cc(F)cc(-c3cnn(C)c3)c2O1 [Compound 18, (7S,13R)-11-fluoro-7,13-dimethyl-9-(1-methyl-1H-pyrazol-4-yl)-6,7,13,14-tetrahydro-1,15-ethenopyrazolo[4,3-f][1,4,8,10]benzoxatriazacyclotridecin-4(5H)-one]	6.22	7.22	7.63
C[C@H]1Nc2ccn3ncc(c3n2)C(=O)NCCOc2c(-c3cnn(C)c3)cc(F)cc21 [Compound 19, (13R)-11-fluoro-13-methyl-9-(1-methyl-1H-pyrazol-4-yl)-6,7,13,14-tetrahydro-1,15-ethenopyrazolo[4,3-f][1,4,8,10]benzoxatriazacyclotridecin-4(5H)-one]	6.00	6.32	7.27
Cc1nn(C)cc1-c1cc(F)cc2c1O[C@@H](C)CNC(=O)c1cnn3ccc(nc13)N[C@@H]2C [Compound 20, (7S,13R)-9-(1,3-dimethyl-1H-pyrazol-4-yl)-11-fluoro-7,13-dimethyl-6,7,13,14-tetrahydro-1,15-ethenopyrazolo[4,3-f][1,4,8,10]benzoxatriazacyclotridecin-4(5H)-one]		6.62	8.19
